Experiments:
Format in all cases: cell-based, human
skin explants = assay: LDH cytotoxicity assay on UV-B irradiated skin explants (ex vivo); conditions: for Cytotoxicity [OD 450 nm] Mean/conditions: LDH production, skin explants irradiated with 200 mJ/cm2 UVB
Description: (§1) To further define the benefits of vitamin B12 in the skin, we included analysis of the compound in response to a stressor that induces inflammasome-medicated inflammation. Stress model options include UV exposure, confirming the effects on more complex skin tissues (ex vivo model). Firstly, the cytotoxicity of the active ingredient was evaluated. Then, the capacity of the active ingredient was measured to regulate inflammasome activation. […] Using immunohistochemistry, the effect of the active ingredient on the level of ASC protein (inflammasome marker) was studied. Finally, the expression level of miRNA hsa-miR-22-3p was quantified from RT-qPCR.
(§2) Ex vivo culture model and treatment: Fresh skin explants were obtained from abdominal surgery of a person. The culture medium dedicated to skin explants was used and renewed every day during each treatment. The skin biopsies were cultured in different conditions and each condition was performed in triplicates and processed separately. The active ingredient treatment was applied before and after the UV-B stress, but not during the UV stress. An UV-B irradiation of […] for 2 minutes was applied identically onto each irradiated skin explant. Prior to the irradiation, the culture medium was removed and replace by PBS +/+ for the duration of the stress.
(§3) Samples: • 1.Control Explant (No treatment, no irradiation) (NT_NS) • 2. Explant + UVB (NT_UV) • 3. Explant + UVB + vitamin B12 (0.01%) • 4. Explant + UVB + vitamin B12 (0.001%) Total no. of samples = 4 x 3 = 12 samples
Cytotoxicity method: Lactate dehydrogenase assay kit (LDH) was purchased from Roche and used according to manufacturer's protocol.
Table 1: Effect of vitamin B12 on LDH production by skin explants at 2 concentrations (0,01% and 0,001%) and of the positive control Triton at 0.1% after irradiation with 200 mJ/cm2 UVB. The statistical analysis was performed using two-tailed unpaired T-test and was not significant (p<0.05) for the vitamin B12 treatment vs irradiated control (NT_UV).

miR-22-3p = miR-22-3p quantification by RT-qPCR in UV-B irradiated skin explants (ex vivo); conditions: for miR-22-3p QR mean: skin explants, UV-B 200 mJ/cm2, normalized using U6 RNA, NT_UV = 1.067; for expression level of miR-22-3p (in words): skin explants after UV-B stress, vs NT_UV
Description: as §1, §2, §3
The miRNAs were extracted and purified using miRCURY RNA Isolation Kit. The quality control and miRNA quantification were performed using Agilent RNA Small kit and Analysis Agilent 2100 bioanalyzer. For miR qPCR, the RNA was reverse transcribed with a miRCURY LNA RT kit (339340, Qiagen). The reverse transcription reactions were diluted, and a fraction of diluted cDNA was used for each quantitative PCR, which was performed with a miRCURY LNA SYBR Green PCR kit (339346, Qiagen) using the CFX-connect (Biorad). The results were normalized to U6 expression. The reference and expression level of miRNA were calculated using 2ΔΔCt method.
Table 2: Effect of vitamin B12 on miR expression in skin explants after UV-B stress. The explants were treated with vitamin B12 at two concentrations (0,01% and 0,001%) and irradiated with UV-B at 200 mJ/cm2. The miR expression was normalized using U6 RNA. Two-tailed unpaired t-test was used for statistical analysis (using values from 3 replicates) vs NT_UV (*p-value <0.05).

Interleukin-1β = assay: IL-1β competitive ELISA on culture supernatants of UV-B irradiated skin explants (ex vivo); conditions: vitamin B12 0,01%
Description: as §1, §2, §3
The secretion of Interleukin-1β in response to activation of the stress-induced inflammatory signaling pathway was evaluated using a competitive ELISA assay. 24 hours after exposure to UV-B irradiation, culture supernatants of explants were recovered. The samples were then treated according to the manufacturer's instructions using the IL-1β (RAB0273, Sigma Aldrich). The Interleukin production by explants was measured at 450 nm using ENSIGHT.
IL-1β secretion results: UV-B increased the production of IL-1β compared to the untreated control. […]

ASC protein = assay: ASC immunostaining of sections of UV-B irradiated skin explants (ex vivo); conditions: for ASC complex, % / ASC complex, mean_int (int/area) / ASC complex, Mean intensity / condition: skin explant sections, UVB 200mJ/cm2; for ASC complex, %: NTNS = 100.00, NTUV = 138.17; for ASC complex, mean_int (int/area) / ASC complex, Mean intensity / condition: n =38; for ASC complex, Mean intensity / condition: NTUV = 660.03, NTNS = 477.70
Description: as §1, §2, §3
To evaluate the onset of apoptotic signaling, the fluorescence intensity of ASC was measured. After UV exposure, the explants were replaced in a fresh culture medium. At the end of the treatments the explants were frozen and then cut into thin sections. Following this, immunohistochemistry was performed by adding primary monoclonal Antibody ASC/TMS1/PYCARD (clone B-3) (SantaCruz #sc-514414) and secondary antibody anti-mouse coupled to Cy5 (Jackson Laboratory). After Hoechst 33342 staining, the fluorescence intensity was measured using a Zeiss fluorescence microscope (Axio imager Z1).
Table 4: Quantification of ASC complex immunolabelled in skin explant sections with or without UV-B stress and after vitamin B12 treatment at 0,01% or 0,001% and irradiated or not with UVB at 200mJ/cm2. The statistical analysis was performed using two-tailed unpaired T-test vs NT_UV (+ p-value <0.05, ++ p-value<0.01, +++ p-value<0.001).

## cyanocobalamin [vitamin B12]
Skin explants; vitamin B12 0,01%
  Cytotoxicity [OD 450 nm] Mean/conditions: 0.131 OD 450 nm
Skin explants; vitamin B12 0,001%
  Cytotoxicity [OD 450 nm] Mean/conditions: 0.163 OD 450 nm
Skin explants; vitamin B12 0,01% and 0,001%, skin explants after UVB, compared to biopsies treated with Triton 0.1%
  cytotoxicity (in words): did not exert cytotoxicity
miR-22-3p; vitamin B12 0,01%
  miR-22-3p QR mean: 1.721
miR-22-3p; vitamin B12 0.01%
  expression level of miR-22-3p (in words): significantly increased
miR-22-3p; vitamin B12 0,001%
  expression level of miR-22-3p (in words): tends to increase miR-22-3p expression, but this activation is not statistically significant
  miR-22-3p QR mean: 1.334
Interleukin-1β; skin explants after UV-B stress
  IL-1β secretion (in words): seems to decrease
Interleukin-1β; skin explants after UV-B, NT_NS = 100, NT_UV = 157
  IL-1β secretion, Relative Intensity: 137
Interleukin-1β; skin explants, 24 hours after UV-B, NT_UV = 4.914, NT_NS = 3.122
  IL-1β secretion, Mean Intensity: 4.2644
ASC protein; vitamin B12 0,01%
  ASC complex, %: 103.22%
  ASC complex, mean_int (int/area): 491.31 int/area
  ASC complex, Mean intensity / condition: 493.07
ASC protein; vitamin B12 0.001 % and 0.01 % topically on UV-irradiated skin explants
  ASC protein (in words): significantly reduced the ASC protein in a dose-dependent manner
ASC protein; vitamin B12 0.001%, after UV-B treatment
  ASC complex activation (in words): significantly reduces the ASC complex activation
ASC protein; vitamin B12 0.01%, compared to the UV-B stressed sample
  ASC complex activation (in words): significantly reduce the ASC complex activation to the level of the none irradiated extract
ASC protein; vitamin B12 0,001%
  ASC complex, %: 118.48%
  ASC complex, mean_int (int/area): 524.44 int/area
  ASC complex, Mean intensity / condition: 565.99

Reference: patent EP4201411A1, “NOVEL USE OF VITAMIN B12” (DSM IP Assets B.V., priority 2021, dated 2023)
